The structures appear in SMILES notation. Where only a bound is given, the exact number is not on record here.

In this assay the target is T1, human GzmA (hGzmA), active recombinant (Homo sapiens, UniProt P12544).
T1 construct: active recombinant enzyme (not the pro-form), dimeric
T1 sequence (P12544 29-262): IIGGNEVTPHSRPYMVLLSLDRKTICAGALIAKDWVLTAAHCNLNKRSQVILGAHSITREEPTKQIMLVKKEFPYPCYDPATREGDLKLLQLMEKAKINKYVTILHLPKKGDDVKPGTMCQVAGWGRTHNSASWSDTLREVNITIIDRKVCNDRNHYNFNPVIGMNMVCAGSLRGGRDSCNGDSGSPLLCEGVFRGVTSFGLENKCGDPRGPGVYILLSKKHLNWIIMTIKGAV
As to the kind of experiment: fluorogenic assay with compound […] as substrate. Conditions: 100 μM inhibitor, 20 μM compound 9, 20 nM hGzmA, Tris buffer pH 8; covalent. In kind it is biochemical.

On to `O=c1oc(Cl)c(Cl)c2ccccc12` [3,4‐dichloroisocoumarin], for which the “% decrease of the fluorescence signal” value is more than 90%.

The values are drawn from article PMC10953043, “Fluorogenic Granzyme A Substrates Enable Real‐Time Imaging of Adaptive Immune Cell Activity” (Angewandte Chemie (Weinheim an Der Bergstrasse, Germany), 2023).
